From patent US11174282B2, “Aminosteroid derivatives and process for producing same” (UNIVERSITÉ LAVAL, priority 2016, dated 2021)
“Also recorded” adds a separate entry of the source. Where two headings read alike, the source gives them in different places.

Tests used:
[1] = tested on: primary pancreas, primary ovary and renal proximal tubule epithelial cells (RPTEC); assay: Toxicity on the normal cell types tested; conditions: higher concentration tested 50 μM
Procedure: Human primary epithelial pancreas and ovary cells were obtained from Cedarlane (Chicago, Ill., USA) and were cultured in the manufacturer recommended medium. Human renal proximal tubule epithelial cells (RPTEC) were obtained from Lonza (Mississauga, ON, Canada) and were maintained in DMEM-F12 supplemented as previously reported [4]. The cell lines were all maintained under a 5% CO2 humidified atmosphere at 37° C. and the culture medium was changed every 2 to 3 days and the cells were split once a week to maintain cell propagation.
The cell proliferation assay was performed using 3-(4,5-dimethylthiazol-2-yl)-5-(3-carboxymethoxyphenyl)2-(4-sulfophenyl)-2H-tetrazolium (MTS) (Cell Titer 96 Aqueous, Promega, Nepean, ON, Canada) as previously described [3, 4, 5]. Briefly, cells were plated in triplicate in 96-well plates (1×10^4 cells/well) in appropriate culture medium (total of 90 μL). Before each treatment, the cells were incubated at 37° C. in a 5% CO2 humidified atmosphere for 24 h. The different aminosteroids were dissolved in methanol (50 mM). The stock solutions were diluted at multiple concentrations with culture media in order to obtain the desired final concentration followed by the addition of 10 μL to each well, and the mixture incubated for 3 days. Following treatment, MTS (10 μL) was added to each well and the mixture was incubated for 4 h. […] Selectivity was calculated by dividing the IC50 obtained for a specific primary cell by the IC50 for the related cancer cell line.

[2] = tested on: Human pancreas cancer cells (PANC-1); assay: Cell proliferation assay (MTS), PANC-1; format: cell-based; conditions: for IC50: read-out: IC50 (μM) Pancreatic cancer PANC-1; for antiproliferative activity relative to RM-133, PANC-1: fold of RM-133 activity (>1 = more active)
Procedure: (§1) The different aminosteroids were dissolved in methanol (50 mM).

[3] = human, 1 h, 10 μM, pH 7.4
Procedure: (§2) Assays were performed at 37° C. for 1 h, with or without 10 mM NADPH in the presence of 40 μg of human liver microsome from Corning (Melrose, Mass., USA) and 10 μM of aminosteroid substrate in a final 100 μL volume of 50 mM Tris buffer (pH 7.4) supplemented with 10 mM MgCl2. Assays were ended by adding 100 μL of MeOH followed by centrifugation at 13,000 g for 10 min to obtain a pellet of proteins. The supernatant of 2 assays was pooled and submitted to HPLC-MS analysis (Shimadzu LCMS-2020 APCI, Alltima HP C18 (250 mm×4.6 mm, 5 μm) column, MeOH:H2O gradient). Remaining substrate (expressed in %) was calculated by dividing the area under the curve of the substrate for the assays without NADPH by the area under the curve of the substrate for the assays with NADPH and multiplied by 100. Values represent the average of 2 independent experiments.

[4] = tested on: renal proximal tubule epithelial cells (RPTEC); assay: Toxicity on normal cells (MTS), RPTEC; format: cell-based, human
Procedure: as §1

[5] = tested on: primary pancreas normal cells; assay: Toxicity on normal cells (MTS), primary pancreas; format: cell-based, human; conditions: for Selectivity Index Pancreas: IC50 normal cells/IC50 cancer cells (primary pancreas / PANC-1); for IC50: human normal cells
Procedure: as §1

[6] = tested on: OVCAR-3 cells (ovarian cancer); assay: Cell proliferation assay (MTS), OVCAR-3; format: cell-based; conditions: for IC50: read-out: IC50 (μM) Ovarian cancer OVCAR-3; for antiproliferative activity relative to RM-133, OVCAR-3: fold of RM-133 activity (>1 = more active)
Procedure: as §1

[7] = tested on: HL-60 (acute promyelocytic leukemia) cells; assay: Cell proliferation assay (MTS), HL-60; format: cell-based; conditions: for IC50: read-out: IC50 (μM) HL-60 (leukemia); for antiproliferative activity relative to RM-133, HL-60: fold of RM-133 activity (>1 = more active)
Procedure: as §1

[8] = tested on: primary ovary normal cells; assay: cells; format: cell-based, human; conditions: for Selectivity Index Ovary: IC50 normal cells/IC50 cancer cells (primary ovary / OVCAR-3)
Procedure: as §1

[9] = Metabolic stability assay, human liver microsomes; conditions: 1 h; for increased metabolic stability relative to RM-133: human hepatic microsomes
Procedure: as §2

[10] = tested on: PANC-1, BxPC-3, Hs766, OVCAR-3, Caov3, SKOV3, MCF-7, T-47D and LAPC-4 cell lines; assay: Cytotoxic activity screening at 5 and 1 μM on cancer cell lines; conditions: independently of the cancer cell line tested, result in words
Procedure: The cell proliferation assay was performed using 3-(4,5-dimethylthiazol-2-yl)-5-(3-carboxymethoxyphenyl)2-(4-sulfophenyl)-2H-tetrazolium (MTS) (Cell Titer 96 Aqueous, Promega, Nepean, ON, Canada) as previously described [3, 4, 5]. Briefly, cells were plated in triplicate in 96-well plates (1×10^4 cells/well) in appropriate culture medium (total of 90 μL). Before each treatment, the cells were incubated at 37° C. in a 5% CO2 humidified atmosphere for 24 h. The different aminosteroids were dissolved in methanol (50 mM). The stock solutions were diluted at multiple concentrations with culture media in order to obtain the desired final concentration followed by the addition of 10 μL to each well, and the mixture incubated for 3 days. Following treatment, MTS (10 μL) was added to each well and the mixture was incubated for 4 h.

[11] = tested on: LAPC-4 (prostate cancer) cells; assay: Cell proliferation assay (MTS), LAPC-4; format: cell-based; conditions: read-out: IC50 (μM) Prostate cancer LAPC-4
Procedure: as §1

[12] = tested on: PC-3 (prostate cancer) cells; assay: Cell proliferation assay (MTS), PC-3; format: cell-based; conditions: 72 h; 3 days treatment, MTS; read-out: IC50 (μM) Prostate cancer PC-3
Procedure: as §1

[13] = tested on: MCF-7 breast cancer cells; assay: Cell proliferation assay (MTS), MCF-7; format: cell-based, human; conditions: Homo sapiens, MCF7, 72 h, 3 days treatment
Procedure: as §1

[14] = tested on: T-47D breast cancer cell line; assay: Cell proliferation assay (MTS), T-47D; format: cell-based; conditions: Homo sapiens, T47D, 72 h; 3 days treatment, MTS
Procedure: as §1

[15] = tested on: LNCaP (prostate cancer) cells; assay: Cell proliferation assay (MTS), LNCaP; format: cell-based; conditions: Homo sapiens, 72 h, 3 days treatment, MTS, read-out: IC50 (μM) Prostate cancer LNCaP
Procedure: as §1

[16] = Homo sapiens, OVCAR-3, 72 h, 3 days treatment, MTS
[17] = Homo sapiens, HL-60, 72 h, 3 days treatment, MTS
[18] = human normal cells, read-out: IC50 (μM) Primary Ovary (normal cells)
[19] = normal (kidney) cells, read-out: IC50 (μM) RPTEC (normal cells)

Compound: C#C[C@@]1(O)CC[C@H]2[C@@H]3CC[C@H]4C[C@H](OC(=O)N(C)C)[C@@H](N5CCN(C(=O)[C@@H]6CCCN6C(=O)c6ccc7ccccc7n6)CC5)C[C@]4(C)[C@H]3CC[C@@]21C [3 (3-carbamate), (2β,3α,5α,17α)-17-hydroxy-2-{4-[1-(quinolin-2-ylcarbonyl)-L-prolyl]piperazin-1-yl}pregn-20-yn-3-yl dimethylcarbamate]
- toxicity on the normal cell types tested [1]: very low toxicity; also recorded: no cytotoxicity was observed
- IC50 ([2]; Homo sapiens, PANC-1, 72 h, 3 days treatment, MTS): 9.99 µM
- antiproliferative activity relative to RM-133, PANC-1 [2]: 0.7 fold
- increased metabolic stability relative to RM-133 ([3]; microsomes): 5.9 fold
- IC50 ([4]; Homo sapiens, RPTEC, normal (kidney) cells, read-out: IC50 (μM) RPTEC (normal cells)): 24.2 µM
- Selectivity Index Pancreas [5]: >5.0
- IC50 [5]: > 50 µM
- IC50 [6, 16]: 20 µM
- antiproliferative activity relative to RM-133, OVCAR-3 [6]: 0.3 fold
- IC50 [7, 17]: 7.95 µM
- antiproliferative activity relative to RM-133, HL-60 [7]: 0.9 fold
- Selectivity Index Ovary [8]: >2.5
- IC50 [8, 18]: > 50 µM

Compound: C#C[C@@]1(O)CC[C@H]2[C@@H]3CC[C@H]4C[C@H](OC(C)=O)[C@H](N5CCN(C(=O)[C@@H]6CCCN6C(=O)c6ccc7ccccc7n6)CC5)C[C@]4(C)[C@H]3CC[C@@]21C [4 (3-ester), (2α,3α,5α,17α)-17-hydroxy-2-{4-[1-(quinolin-2-ylcarbonyl)-L-prolyl]piperazin-1-yl}pregn-20-yn-3-yl acetate]
- toxicity on the normal cell types tested [1]: very low toxicity
- IC50 ([2]; 3 days treatment, MTS): 6.24 µM
- antiproliferative activity relative to RM-133, PANC-1 [2]: 1.1 fold
- increased metabolic stability relative to RM-133 [9]: 3.1 fold
- IC50 [4, 19]: 32.1 µM
- Selectivity Index Pancreas [5]: 4.8
- IC50 [5]: 30.1 µM
- IC50 ([6]; 3 days treatment, MTS): 3.83 µM
- antiproliferative activity relative to RM-133, OVCAR-3 [6]: 1.4 fold
- IC50 ([7]; 3 days treatment, MTS): 6.44 µM
- antiproliferative activity relative to RM-133, HL-60 [7]: 1.1 fold
- Selectivity Index Ovary [8]: 11.0
- IC50 [8, 18]: 42 µM

Compound: C#C[C@]1(OC(C)=O)CC[C@H]2[C@@H]3CC[C@H]4C[C@H](OC(C)=O)[C@@H](N5CCN(C(=O)[C@@H]6CCCN6C(=O)c6ccc7ccccc7n6)CC5)C[C@]4(C)[C@H]3CC[C@@]21C [5 (3,17-diester), (2β,3α,5α,17α)-2-{4-[1-(quinolin-2-ylcarbonyl)-L-prolyl]piperazin-1-yl}pregn-20-yne-3,17-diyl diacetate]
- toxicity on the normal cell types tested [1]: increased toxicity relative to the mono-ester derivative 4
- IC50 ([2]; 3 days treatment, MTS): 25 µM
- antiproliferative activity relative to RM-133, PANC-1 [2]: 0.3 fold
- increased metabolic stability relative to RM-133 [9]: 3.5 fold
- IC50 [4, 19]: 45.5 µM
- IC50 [5]: 16.6 µM
- IC50 ([6]; 3 days treatment, MTS): 13.1 µM
- antiproliferative activity relative to RM-133, OVCAR-3 [6]: 0.4 fold
- IC50 ([7]; 3 days treatment, MTS): 6.44 µM
- antiproliferative activity relative to RM-133, HL-60 [7]: activity similar to RM-133
- IC50 [8, 18]: 25.4 µM

Compound: C#C[C@@]1(O)CC[C@H]2[C@@H]3CCc4cc(OC(=O)N(C)C)c(N5CCN(C(=O)[C@@H]6CCCN6C(=O)c6ccc7ccccc7n6)CC5)cc4[C@H]3CC[C@@]21C [Compound 1, (17β)-17-ethynyl-17-hydroxy-2-{4-[1-(quinolin-2-ylcarbonyl)-L-prolyl]piperazin-1-yl}estra-1,3,5(10)-trien-3-yl dimethylcarbamate]
- IC50 ([2]; Homo sapiens, PANC-1, 72 h): 9.6 µM
- cytotoxic activity in screening (cell survival) [10]: only slight differences in their respective levels of activity
- IC50 ([4]; Homo sapiens, RPTEC, read-out: IC50 (μM) Normal Cells Kidney): ≥ 50 µM
- IC50 ([6]; Homo sapiens, OVCAR-3, 72 h): 6.4 µM
- IC50 ([7]; Homo sapiens, HL-60, 72 h): 4.3 µM
- IC50 ([11]; Homo sapiens, LAPC4, 72 h): 1.3 µM
- IC50 ([8]; Homo sapiens, read-out: IC50 (μM) Normal Cells Ovary): ≥ 50 µM

Compound: C#C[C@@]1(O)CC[C@H]2[C@@H]3CCc4cc(OC(=O)N(CC)CC)c(N5CCN(C(=O)[C@@H]6CCCN6C(=O)c6ccc7ccccc7n6)CC5)cc4[C@H]3CC[C@@]21C [Compound 2, (17β)-17-ethynyl-17-hydroxy-2-{4-[1-(quinolin-2-ylcarbonyl)-L-prolyl]piperazin-1-yl}estra-1,3,5(10)-trien-3-yl diethylcarbamate]
- cytotoxic activity in screening (cell survival) [10]: marked weaker cytotoxic activity; also recorded: significant losses of activity

Compound: C#C[C@@]1(O)CC[C@H]2[C@@H]3CCc4cc(OC(C)=O)c(N5CCN(C(=O)[C@@H]6CCCN6C(=O)c6ccc7ccccc7n6)CC5)cc4[C@H]3CC[C@@]21C [Compound 3, (17β)-17-ethynyl-17-hydroxy-2-{4-[1-(quinolin-2-ylcarbonyl)-L-prolyl]piperazin-1-yl}estra-1,3,5(10)-trien-3-yl acetate]
- toxicity on the normal cell types tested [1]: did not trigger any loss of cell viability even at concentrations as high as 50 μM
- phenolic metabolite RM-581-OH (stability of potential prodrugs to hydrolysis) [3]: no trace of the phenolic metabolite RM-581-OH could be observed
- IC50 ([4]; Homo sapiens, RPTEC, relative toxicity on human normal cells, read-out: IC50 (μM) Normal Cells Kidney): ≥ 50 µM
- IC50 [12]: 1.4 ± 0.3 µM
- IC50 [13]: 1.4 ± 0.1 µM
- IC50 ([6]; 3 days treatment, MTS): 3.4 µM
- IC50 [6, 16]: 3.9 ± 0.4 µM
- IC50 [7, 17]: 4.3 µM
- IC50 ([11]; 3 days treatment, MTS): 0.6 µM
- IC50 ([11]; Homo sapiens, LAPC4, 72 h, 3 days treatment, MTS): 0.5 ± 0.4 µM
- IC50 [14]: 0.4 ± 0.2 µM
- IC50 [15]: 0.8 ± 0.3 µM
- IC50 ([8]; relative toxicity on human normal cells, read-out: IC50 (μM) Normal Cells Ovary): ≥ 50 µM

Compound: C#Cc1cc2c(cc1N1CCN(C(=O)[C@@H]3CCCN3C(=O)c3ccc4ccccc4n3)CC1)[C@H]1CC[C@@]3(C)[C@@H](CC[C@@]3(O)C#C)[C@@H]1CC2 [Compound 17a, {4-[(17β)-3,17-diethynyl-17-hydroxyestra-1,3,5(10)-trien-2-yl]piperazin-1-yl}[(2S)-1-(quinolin-2-ylcarbonyl)pyrrolidin-2-yl]methanone]
- cytotoxic activity in screening (cell survival) [10]: only slight differences in their respective levels of activity

Compound: C#C[C@@]1(O)CC[C@H]2[C@@H]3CCc4cc(C(C)O)c(N5CCN(C(=O)[C@@H]6CCCN6C(=O)c6ccc7ccccc7n6)CC5)cc4[C@H]3CC[C@@]21C (stereo partly drawn) [Compound 18, {4-[(17β)-17-ethynyl-17-hydroxy-3-(1-hydroxyethyl)estra-1,35(10)-trien-2-yl]piperazin-1-yl}[(2S)-1-(quinolin-2-ylcarbonyl)pyrrolidin-2-yl]methanone]
- cytotoxic activity in screening (cell survival) [10]: only slight differences in their respective levels of activity
- metabolic stability (% of remaining compound) ([9]; 10 μM, 40 μg human liver microsomes, result in words): slightly lower values
